Laboratory results taken from ChEMBL document CHEMBL3885881, “DrugMatrix”.

Species on record: Rattus norvegicus
Test: DrugMatrix - Regimen: Daily Repeat
Type: toxicity, organism-based, Sprague-Dawley
Design: regimen Daily Repeat, gender Male, age 6-8 weeks
Details: in vivo, po, route oral GAVAGE, […]
[1] = 0 mg/kg, 72 h, tissue Blood, dose level Control, time 3 day
[2] = 0 mg/kg, 72 h, tissue Plasma, dose level Control, time 3 day
[3] = 0 mg/kg, 120 h, tissue Blood, dose level Control, time 5 day
[4] = 0 mg/kg, 120 h, tissue Plasma, dose level Control, time 5 day
[5] = 72 h, tissue Blood, dose 6.3 mg/Kg, dose level Low, time 3 day
[6] = 72 h, tissue Plasma, dose 6.3 mg/Kg, dose level Low, time 3 day
[7] = 120 h, tissue Blood, dose 6.3 mg/Kg, dose level Low, time 5 day
[8] = 120 h, tissue Plasma, dose 6.3 mg/Kg, dose level Low, time 5 day

ZIRCONIUM(IV) CHLORIDE
ABSOLUTE BASOPHIL [1]: 0 CELLS/uL | ABSOLUTE EOSINOPHIL [1]: 13.67 CELLS/uL | ABSOLUTE LYMPHOCYTE [1]: 10069.5 CELLS/uL | ABSOLUTE MONOCYTE [1]: 50 CELLS/uL | ABSOLUTE SEGMENTED NEUTROPHIL [1]: 516.83 CELLS/uL | BASOPHIL [1]: 0% | EOSINOPHIL [1]: 0.17% | ERYTHROCYTE COUNT [1]: 5.44 x10E6/uL | HEMATOCRIT [1]: 33.88% | HEMOGLOBIN [1]: 13.23 G/DL | LEUKOCYTE COUNT [1]: 10.65 x10E3/uL | LYMPHOCYTE [1]: 94.67% | MEAN CORPUSCULAR HEMOGLOBIN [1]: 24.37 pg | MEAN CORPUSCULAR HEMOGLOBIN CONCENTRATION [1]: 39.05 G/DL | MONOCYTE [1]: 0.67% | NEUTROPHIL [1]: 4.5% | NUCLEATED RED BLOOD CELLS [1]: 0.33 /100WBC | PLATELET COUNT [1]: 414.5 x10E3/uL | ALANINE AMINOTRANSFERASE [2]: 72 u/L | ALKALINE PHOSPHATASE [2]: 375 u/L | ASPARTATE AMINOTRANSFERASE [2]: 87.5 u/L | BLOOD UREA NITROGEN [2]: 14 mg/dL | CARBON DIOXIDE [2]: 27.5 mmol/L | CHLORIDE [2]: 95.83 MEQ/L | CHOLESTEROL [2]: 68.5 mg/dL | CREATINE PHOSPHOKINASE [2]: 284.33 u/L | CREATININE [2]: 0.16 mg/dL | LACTATE DEHYDROGENASE [2]: 101.83 u/L | PHOSPHORUS [2]: 10.33 mg/dL | POTASSIUM [2]: 5.22 MEQ/L | TOTAL BILIRUBIN [2]: 0.13 mg/dL | TOTAL PROTEIN [2]: 5.43 G/DL | URIC ACID [2]: 0.8 mg/dL | ABSOLUTE BASOPHIL [3]: 0 CELLS/uL | ABSOLUTE EOSINOPHIL [3]: 20.67 CELLS/uL | ABSOLUTE LYMPHOCYTE [3]: 11518.33 CELLS/uL | ABSOLUTE MONOCYTE [3]: 47 CELLS/uL | ABSOLUTE SEGMENTED NEUTROPHIL [3]: 614 CELLS/uL | BASOPHIL [3]: 0% | EOSINOPHIL [3]: 0.17% | ERYTHROCYTE COUNT [3]: 5.61 x10E6/uL | HEMATOCRIT [3]: 34.25% | LEUKOCYTE COUNT [3]: 12.2 x10E3/uL | LYMPHOCYTE [3]: 94.33% | MEAN CORPUSCULAR HEMOGLOBIN [3]: 23.83 pg | MEAN CORPUSCULAR HEMOGLOBIN CONCENTRATION [3]: 39.08 G/DL | MEAN CORPUSCULAR VOLUME [3]: 61.03 fL | MONOCYTE [3]: 0.33% | NEUTROPHIL [3]: 5.17% | NUCLEATED RED BLOOD CELLS [3]: 0 /100WBC | PLATELET COUNT [3]: 941.83 x10E3/uL | ALANINE AMINOTRANSFERASE [4]: 68.83 u/L | ALKALINE PHOSPHATASE [4]: 492.67 u/L | ASPARTATE AMINOTRANSFERASE [4]: 83.33 u/L | BLOOD UREA NITROGEN [4]: 14 mg/dL | CARBON DIOXIDE [4]: 37 mmol/L | CHLORIDE [4]: 98.67 MEQ/L | CHOLESTEROL [4]: 56.5 mg/dL | CREATINE PHOSPHOKINASE [4]: 167.33 u/L | CREATININE [4]: 0.17 mg/dL | GLUCOSE [4]: 157.5 mg/dL | LACTATE DEHYDROGENASE [4]: 104.83 u/L | LIPASE [4]: 10 u/L | PHOSPHORUS [4]: 10.43 mg/dL | POTASSIUM [4]: 5.46 MEQ/L | TOTAL BILIRUBIN [4]: 0.17 mg/dL | TOTAL PROTEIN [4]: 5.72 G/DL | URIC ACID [4]: 0.85 mg/dL | ABSOLUTE BASOPHIL [5]: 0 CELLS/uL | ABSOLUTE EOSINOPHIL [5]: 0 CELLS/uL | ABSOLUTE LYMPHOCYTE [5]: 15285.67 CELLS/uL | ABSOLUTE MONOCYTE [5]: 331 CELLS/uL | ABSOLUTE SEGMENTED NEUTROPHIL [5]: 1716.67 CELLS/uL | BASOPHIL [5]: 0% | EOSINOPHIL [5]: 0% | ERYTHROCYTE COUNT [5]: 5.71 x10E6/uL | HEMOGLOBIN [5]: 13.97 G/DL | LEUKOCYTE COUNT [5]: 17.33 x10E3/uL | LYMPHOCYTE [5]: 88% | MEAN CORPUSCULAR HEMOGLOBIN CONCENTRATION [5]: 38.27 G/DL | MONOCYTE [5]: 2% | NEUTROPHIL [5]: 10% | NUCLEATED RED BLOOD CELLS [5]: 0 /100WBC | PLATELET COUNT [5]: 1101 x10E3/uL | ALANINE AMINOTRANSFERASE [6]: 74.67 u/L | ALKALINE PHOSPHATASE [6]: 510.33 u/L | ASPARTATE AMINOTRANSFERASE [6]: 87.33 u/L | BLOOD UREA NITROGEN [6]: 14.33 mg/dL | CARBON DIOXIDE [6]: 27 mmol/L | CHOLESTEROL [6]: 56.33 mg/dL | CREATINE PHOSPHOKINASE [6]: 244 u/L | CREATININE [6]: 0.15 mg/dL | GLUCOSE [6]: 186.67 mg/dL | LACTATE DEHYDROGENASE [6]: 186 u/L | PHOSPHORUS [6]: 12.53 mg/dL | POTASSIUM [6]: 5.75 MEQ/L | TOTAL BILIRUBIN [6]: 0.1 mg/dL | ABSOLUTE BASOPHIL [7]: 0 CELLS/uL | ABSOLUTE EOSINOPHIL [7]: 0 CELLS/uL | ABSOLUTE LYMPHOCYTE [7]: 13034.67 CELLS/uL | ABSOLUTE MONOCYTE [7]: 344.67 CELLS/uL | ABSOLUTE SEGMENTED NEUTROPHIL [7]: 1154 CELLS/uL | BASOPHIL [7]: 0% | EOSINOPHIL [7]: 0% | ERYTHROCYTE COUNT [7]: 6.21 x10E6/uL | HEMATOCRIT [7]: 38.6% | HEMOGLOBIN [7]: 14.47 G/DL | LEUKOCYTE COUNT [7]: 14.53 x10E3/uL | MEAN CORPUSCULAR HEMOGLOBIN [7]: 23.3 pg | MEAN CORPUSCULAR HEMOGLOBIN CONCENTRATION [7]: 37.47 G/DL | NEUTROPHIL [7]: 8% | NUCLEATED RED BLOOD CELLS [7]: 0 /100WBC | PLATELET COUNT [7]: 1100.67 x10E3/uL | ALANINE AMINOTRANSFERASE [8]: 68.67 u/L | ALKALINE PHOSPHATASE [8]: 472.33 u/L | ASPARTATE AMINOTRANSFERASE [8]: 84.33 u/L | BLOOD UREA NITROGEN [8]: 13.33 mg/dL | CARBON DIOXIDE [8]: 31.33 mmol/L | CHOLESTEROL [8]: 55.33 mg/dL | CREATINE PHOSPHOKINASE [8]: 232 u/L | CREATININE [8]: 0.14 mg/dL | LACTATE DEHYDROGENASE [8]: 112.67 u/L | PHOSPHORUS [8]: 11.63 mg/dL | POTASSIUM [8]: 6.33 MEQ/L | TOTAL BILIRUBIN [8]: 0.2 mg/dL | TOTAL PROTEIN [8]: 5.5 G/DL
